Consider six compounds from ChEMBL document CHEMBL5441456, “ASAP - SARS-CoV-2 nsp3 macrodomain dose response” (2024).

Assay [1] concerns the target T1, Replicase polyprotein 1ab (Severe acute respiratory syndrome coronavirus 2, UniProt P0DTD1). The assay is described as follows: Functional biochemical assay to identify treatments for viral infectious disease that targets SARS-COV-2 nsp3 macrodomain, whereby the mechanism of action displaces an ADP-Ribose modified peptide from the binding site. Utilizing a time-resolved fluorescence method to measure binding by reading the emitted fluorescence intensity in two wavelengths.

The target of assay [2] is T1, Replicase polyprotein 1ab. Nature of the assay: Functional biochemical assay to identify treatments for viral infectious disease that targets SARS-COV-2 nsp3 macrodomain, whereby the mechanism of action inhibits ADP-Ribose hydrolase activity. Utilizing an enzymatic assay to monitor the conversion of alpha-NAD+ to ADP-Ribose and nicotinamide. ADP-ribose was quantified by LC-MS/MS after precipitation of proteins.

Structures are written as SMILES. pIC50: −log10 of the molar value. “And” between values parts separate entries of the source, which are not always exact repeats. Equal values may be shown once.

Usually IC50 stands for the concentration that gives 50% inhibition. A high value points to weaker potency. By pIC50 is commonly meant −log10 of the IC50, conventionally taken in molar units. Turning to `Cc1nn(C)cc1-c1cc2c(N[C@H](c3ccc4c(c3)S(=O)(=O)CCC4)C(C)C)ncnc2[nH]1`, the IC50 in assay [1] is 28 nM (3×) and 14 nM and 32 nM and 13 nM and 24 nM and 36 nM and 12 nM and 11 nM. Also, in assay [2], the pIC50 was 6.49 and 6.62 and 6.54.
For the compound `CC(C)[C@@H](Nc1ncnc2[nH]c(C(=O)N[C@@H]3CCN(C)C3)cc12)c1ccc2c(c1)S(=O)(=O)CCC2`, the pIC50 was 7.19 and 7.18 and 7.14 and 7.24 in assay [1]; 6.32 and 6.50 and 6.34 in assay [2].
Turning to `COc1ccc([C@H](Cc2nnn[nH]2)NC(=O)c2ncnc3[nH]ccc23)cc1`, the pIC50 in assay [1] is 6.46 and 6.50; in assay [2] it was 5.63 and 5.83 and 5.79.
`CNCc1cc(-c2cc3c(N[C@@H](c4ccc5c(c4)S(=O)(=O)CCC5)C(C)C)ncnc3[nH]2)co1`: in assay [1], the IC50 was 25 nM and 41 nM and 22 nM and 19 nM (2×) and 12 nM. In assay [2], the pIC50 is 6.54 and 6.40 and 6.27.
Consider `C[C@H](C(=O)O)[C@@H](NC(=O)c1ncnc2[nH]ccc12)c1ccc(Br)cc1`, for which the pIC50 is 6.10 and 6.21 and 6.47 in assay [1]; 5.87 and 5.72 and 5.75 in assay [2].
On to `CNC(=O)c1c[nH]c2ncnc(N[C@H](c3ccc4c(c3)S(=O)(=O)CCC4)C(C)C)c12`, for which the pIC50 was 6.92 and 6.96 in assay [1]; 6.61 in assay [2].
